Test results reported in US20020076401A1, “Heat shock protein inducing factor and method for its in-situ generation from an inactive form” (priority 2000, published 2002).
Where a SMILES comes first, the peptide text is derived from it. The star is where a group is joined. Cbz = O=C(OCc1ccccc1)*

Columns and labels:
[1] = tested on: Hsp72 expression in old cells; conditions: cited from earlier work
[2] = tested on: Hsp70-inducing activity in serum; experiment: Periodate treatment of serum from differently stressed mice; assay type: cell-based; conditions: in vitro periodate treatment
[3] = tested on: HSP-inducing factor in serum; experiment: In-vivo activation of HSP-inducing factor by prolonged release of periodate; set-up: species or system mouse; conditions: 500 mM released over 72 hours, SQ pump; detected after 3 hours and maintained
Description: In another type of experiment […] of either 500 mM solution of sodium periodate in physiological saline or physiological saline alone were released over a period of 72 hours using microosmotic pumps implanted SQ. In parallel experiments the same concentration of periodate but prequenched with potassium borohydride as described above was administered. After different time periods blood samples were collected from tail and serum was used in the assay described above.

[4] = tested on: HSP-inducing factor in blood serum and ascites fluid; experiment: In-vitro activation of HSP-inducing factor by sodium periodate; assay type: cell-based, mouse
Description: To activate HSP-inducing factor, 200 mM solution of sodium periodate in physicological saline (solutions of sodium periodate in water or in 50 mM sodium acetate pH 5.0 work equally well) was added to aliquots of serum or of ascites fluid to final concentration of 1 mM to 20 mM (at these concentrations and in conditions outlined below, sodium periodate oxidizes only sugar groups). Mixtures were incubated at room temperature in darkness for 1 hour. Following the incubation sodium periodate was quenched by the addition of solution of potassium borohydride in physiological saline to a final concentration equal to 1.5 times excess of the concentration of sodium periodate. The completeness of quenching was verified by using potassium iodide-starch test paper.
(§1) Aliquots of serum, treated as described above, were added to cultures of CH1 cells and cultures of primary human fibroblasts at 20% of final volume. Cultures were incubated for 16 hours at regular tissue culture conditions (37° C., 5% CO2). Following the incubation, cells were collected, washed, and lysed. Lysates were subjected to polyacrylamide gel electrophoresis (PAGE), transferred to nitrocellulose membrane (Awestem transfer≅), and Hsp70 was detected by immunoblotting with Hsp70-specific monoclonal antibody (Spa810) and visualized by ECL technique.

[5] = tested on: HSP-inducing factor in serum; experiment: In-vivo activation of HSP-inducing factor by single injection of periodate; set-up: species or system mice
Description: as §1
Mice were injected with either intraperitoneally (IP) or subcutaneously (SQ) with 0.2 ml of sodium periodate solution in physiological saline, or with 0.2 ml of physiological saline alone.
Four different concentrations of sodium periodate were used: 15 mM, 30 mM, 60 mM, and 120 mM. In parallel experiments the same concentrations of periodate but prequenched with potassium borohydride as described above were injected. After 2 hours blood samples were collected from tail and serum was used in the assay described above.

| SMILES | toxicity [1] | Hsp72 synthesis ([1]; old cells) | Hsp70-inducing activity of serum from differently stressed mice after periodate treatment [2] | levels of HSP-inducing factor in serum [3] | levels of active factor versus periodate concentration ([4]; assessed by Hsp70 in cell lysates) | activation of HSP-inducing factor ([4]; blood serum and ascites fluid, 1 mM to 20 mM, 1 hour, room temperature) | Hsp70 in cell lysate relative to cells incubated with untreated serum ([4]; maximal sodium periodate concentration, serum at 20%, 16 hours) | levels of HSP in cell lysates relative to cells incubated with untreated serum ([5]; maximal sodium periodate concentration, single injection) | levels of HSP-inducing factor in serum ([5]; mice, IP or SQ 0.2 ml of 15-120 mM, 2 hours) | levels of HSP-inducing factor versus periodate concentration ([5]; mice, single injection) |
| --- | --- | --- | --- | --- | --- | --- | --- | --- | --- | --- |
| CC(C)C[C@@H](C=O)NC(=O)[C@H](CC(C)C)NC(=O)[C@H](CC(C)C)NC(=O)OCc1ccccc1 [MG132] (Cbz-Leu-Leu-Leu-aldehyde) | highly toxic | induces Hsp72 synthesis via an alternative heat shock transcription factor HSF2 |  |  |  |  |  |  |  |  |
| [O-][I+3]([O-])([O-])O [sodium periodate] |  |  | further increased in all samples to a level identical to that seen in periodate-activated serum from non-stressed mice | Substantially increased levels of HSP-inducing factor | directly proportional to concentrations of sodium periodate used | strongly activated | at least 50 times | about 10 times | substantially increased levels of HSP-inducing factor | directly proportional to the concentrations of periodate used |
